# From patent US20230339851A1, “CXCR6 SULFONAMIDE COMPOUNDS” (CHEMOCENTRYX, INC., priority 2022, published 2023)
# Biological target: T1, human CXCR6 (Homo sapiens, UniProt O00574)
# T1 construct: expressed in transfected cells
# Assay: Radioligand Binding Assay (125I-CXCL16 displacement)
# Conditions: L1.2 cells stably transfected with human CXCR6 cDNA, 0.1 nM 125I-CXCL16, 4° C., three-hour incubation; read-out: Potency (IC50)
# Experimental: L1.2 cells stably transfected with human CXCR6 cDNA ([…]) were incubated at 4° C. in HBSS containing 0.1 % BSA and 0.1 nM of ^125I-CXCL16 plus various concentrations of Compound. Following a three-hour incubation period, cells were aspirated onto polyethyleneimine-treated GF/B glass fiber filters (PerkinElmer, Waltham, MA) with a cell harvester (Tomtec, Hamden, CT) and washed twice with washing buffer (25 mM Hepes, 500 mM NaCl, 1 mM CaCI2, 5 mM MgCI2, pH 7.1). Fifty µl of MicroScint-20 (PerkinElmer, Waltham, MA) was added to each well of the filters, and radioactive emissions (cpm) were measured on a Packard TopCount Scintillation counter (PerkinElmer, Waltham, MA). IC50 values were calculated with GraphPad Prism using 3 parameter nonlinear regression. […]
# T1 sequence (O00574 whole entry): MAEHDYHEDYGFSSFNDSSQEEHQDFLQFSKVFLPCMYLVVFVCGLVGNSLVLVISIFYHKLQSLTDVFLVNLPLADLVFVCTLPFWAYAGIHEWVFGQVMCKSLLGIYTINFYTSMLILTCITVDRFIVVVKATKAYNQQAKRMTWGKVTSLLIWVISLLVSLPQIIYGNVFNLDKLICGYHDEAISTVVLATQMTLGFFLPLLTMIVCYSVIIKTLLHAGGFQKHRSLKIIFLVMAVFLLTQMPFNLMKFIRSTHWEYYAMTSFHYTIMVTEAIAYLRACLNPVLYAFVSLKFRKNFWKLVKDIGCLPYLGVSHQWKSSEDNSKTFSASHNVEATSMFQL
row,IC50 [nM],SMILES
1,200 to 750,Cc1cc(NC(=O)c2ccnn2C)cc(C)c1S(=O)(=O)Nc1cccc(C(F)(F)F)c1 [Example 1.504]
2,2000 to 20000,CC(C)Oc1cc(NC(=O)c2ccnn2C)ccc1S(=O)(=O)Nc1cccc(C(F)(F)F)c1 [Example 1.317]
3,200 to 750,Cc1cc(NC(=O)c2ccccc2Cl)ccc1S(=O)(=O)Nc1cccc(C(F)(F)F)c1 [Example 1.292]
4,≤ 200,CCOc1cc(NC(=O)c2ccn(CC)c(=O)c2)ccc1S(=O)(=O)Nc1cccc(OC(F)(F)F)c1 [Example 1.396]
5,≤ 200,C=C(C)CC(CCO)C(=O)Nc1ccc(S(=O)(=O)Nc2cccc(OC(F)(F)F)c2)c(OCC)c1 (centres unmarked) [Example 1.180]
6,≤ 200,CCOc1cc(NC(=O)[C@@H](NC=O)C(C)CC)ccc1S(=O)(=O)Nc1cccc(OC(F)(F)F)c1 (some centres unmarked) [Example 1.108]
7,≤ 200,CCOc1cc(NC(=O)[C@@H](CO)C2CC2)ccc1S(=O)(=O)Nc1cccc(C(F)(F)F)c1 [Example 1.494]
8,2000 to 20000,Cc1cc(NC(=O)CN(C)C)ccc1S(=O)(=O)Nc1cccc(C(F)(F)F)c1 [Example 1.553]
9,≤ 200,CCOc1cc(NC(=O)C(NC)c2ccccc2)ccc1S(=O)(=O)Nc1cccc(OC(F)(F)F)c1 (centres unmarked) [Example 1.408]
10,750 to 2000,CCCc1cc(C(=O)Nc2ccc(S(=O)(=O)Nc3cccc(C(F)(F)F)c3)c(OC)c2)n(C)n1 [Example 1.578]
11,≤ 200,CCOc1cc(NC(=O)[C@@H](O)C(C)C)ccc1S(=O)(=O)Nc1ccc(C)c(Cl)c1 [Example 1.368]
12,200 to 750,CCOc1cc(NC(=O)CC(C)O)ccc1S(=O)(=O)Nc1cccc(OC(F)(F)F)c1 (centres unmarked) [Example 1.253]
13,750 to 2000,COc1cc(NC(=O)c2ccnn2C)ccc1S(=O)(=O)Nc1ccc(Cl)c(Cl)c1 [Example 1.247]
14,≤ 200,CCCc1cc(NC(=O)[C@@H](CO)C2CC2)ccc1S(=O)(=O)Nc1cccc(OC(F)(F)F)c1 [Example 1.099]
15,2000 to 20000,COCCC(=O)Nc1ccc(S(=O)(=O)Nc2cccc(C(F)(F)F)c2)c(OC)c1 [Example 1.423]
16,≤ 200,CCOc1cc(NC(=O)C2CCC=C[C@@H]2O)ccc1S(=O)(=O)Nc1cccc(OC(F)(F)F)c1 (some centres unmarked) [Example 1.303]
17,200 to 750,CC(C)[C@H](O)C(=O)Nc1ccc(S(=O)(=O)Nc2cccc(OC(F)(F)F)c2)c(C#N)c1 [Example 1.165]
18,200 to 750,CCOc1cc(NC(=O)C2CC3C=CC2O3)ccc1S(=O)(=O)Nc1cccc(OC(F)(F)F)c1 (centres unmarked) [Example 1.046]
19,200 to 750,CCOc1cc(NC(=O)[C@H]2CCOC[C@@H]2COC)ccc1S(=O)(=O)Nc1cccc(OC(F)(F)F)c1 (racemic) [Example 1.237]
20,200 to 750,COc1cc(NC(=O)c2ccnn2C)ccc1S(=O)(=O)Nc1ccc(Cl)cc1 [Example 1.114]
21,≤ 200,CCOc1cc(NC(=O)C(C(C)C)C(C)O)ccc1S(=O)(=O)Nc1cccc(OC(F)(F)F)c1 (centres unmarked) [Example 1.133]
22,2000 to 20000,Cc1cc(NC(=O)c2nccn2C)ccc1S(=O)(=O)Nc1cccc(C(F)(F)F)c1 [Example 1.116]
23,≤ 200,CCOc1cc(NC(=O)C2CC3CCC2O3)ccc1S(=O)(=O)Nc1cccc(OC(F)(F)F)c1 (centres unmarked) [Example 1.061]
24,≤ 200,COc1cc(NC(=O)CC2CCCCC2)ccc1S(=O)(=O)Nc1cccc(C(F)(F)F)c1 [Example 1.344]
25,750 to 2000,Cc1cc(NC(=O)c2ccon2)ccc1S(=O)(=O)Nc1cccc(C(F)(F)F)c1 [Example 1.268]
26,200 to 750,CCOc1cc(NC(=O)C(CO)CC2CCOCC2)ccc1S(=O)(=O)Nc1cccc(OC(F)(F)F)c1 (centres unmarked) [Example 1.309]
27,200 to 750,Cc1cc(NC(=O)c2cnoc2C)ccc1S(=O)(=O)Nc1cccc(C(F)(F)F)c1 [Example 1.255]
28,2000 to 20000,Cc1cc(NC(=O)c2cscn2)ccc1S(=O)(=O)Nc1cccc(C(F)(F)F)c1 [Example 1.359]
29,≤ 200,CCOc1cc(NC(=O)[C@@H](O)C(C)C)ccc1S(=O)(=O)Nc1ccc(C)c(C(F)(F)F)c1 [Example 1.363]

# Second part, the compound before the results:
row,SMILES,IC50 [nM]
1,CCOc1cc(NC(=O)c2ccnc(OC)c2)ccc1S(=O)(=O)Nc1cccc(OC(F)(F)F)c1 [Example 1.076],200 to 750
2,CCOc1cc(NC(=O)[C@H]2[C@H](C)COC[C@@H]2C)ccc1S(=O)(=O)Nc1cccc(OC(F)(F)F)c1 [Example 1.305],≤ 200
3,CCOc1cc(NC(=O)[C@@H](CO)C(C)C)ccc1S(=O)(=O)Nc1cccc(C(C)(F)F)c1 [Example 1.181],≤ 200
4,Cc1ccccc1C(=O)Nc1ccc(S(=O)(=O)Nc2cccc(C(F)(F)F)c2)c(C)c1 [Example 1.293],200 to 750
5,COc1cc(NC(=O)C2CCOC2)ccc1S(=O)(=O)Nc1cccc(OC(F)(F)F)c1 (centres unmarked) [Example 1.042],750 to 2000
6,CCOc1cc(NC(=O)[C@@H](O)C(C)C)ccc1S(=O)(=O)Nc1ccc(C(F)(F)F)cc1 [Example 1.244],200 to 750
7,CCOc1cc(NC(=O)C2CCCN(C(=O)OC(C)(C)C)C2)ccc1S(=O)(=O)Nc1cccc(OC(F)(F)F)c1 (centres unmarked) [Example 1.458],2000 to 20000
8,CCOc1cc(NC(=O)[C@@H](NC(=O)OC(C)(C)C)C(C)O)ccc1S(=O)(=O)Nc1cccc(OC(F)(F)F)c1 (some centres unmarked) [Example 1.020],750 to 2000
9,CCOc1cc(NC(=O)[C@@H](CO)C(C)C)ccc1S(=O)(=O)Nc1ccc(C)c(CC)c1 [Example 1.356],≤ 200
10,CCc1cc(NC(=O)[C@@H](CO)c2ccccc2)ccc1S(=O)(=O)Nc1cccc(OC(F)(F)F)c1 [Example 1.163],≤ 200
11,COc1cc(NC(=O)c2ccnn2C)ccc1S(=O)(=O)Nc1cccc(C)c1 [Example 1.242],2000 to 20000
12,CCOc1cc(NC(=O)c2ccn(C)c(=O)c2)ccc1S(=O)(=O)Nc1cccc(OC(F)(F)F)c1 [Example 1.110],≤ 200
13,Cc1cc(NC(=O)c2cncs2)ccc1S(=O)(=O)Nc1cccc(C(F)(F)F)c1 [Example 1.501],200 to 750
14,CCOc1cc(NC(=O)[C@@H](NS(C)(=O)=O)C(C)C)ccc1S(=O)(=O)Nc1cccc(OC(F)(F)F)c1 [Example 1.324],≤ 200
15,CCOc1cc(NC(=O)C(O)c2cccnc2)ccc1S(=O)(=O)Nc1cccc(OC(F)(F)F)c1 (centres unmarked) [Example 1.493],750 to 2000
16,CCOc1cc(NC(=O)[C@@H](N)c2ccccc2)ccc1S(=O)(=O)Nc1ccc(C)c(OC(F)(F)F)c1 [Example 1.462],≤ 200
17,CCOc1cc(NC(=O)[C@H](O)c2ccccc2)ccc1S(=O)(=O)Nc1cccc(OC(F)(F)F)c1 [Example 1.547],200 to 750
18,CCOc1cc(NC(=O)C2(O)CC2)ccc1S(=O)(=O)Nc1cccc(OC(F)(F)F)c1 [Example 1.318],750 to 2000
19,CCOc1cc(NC(=O)[C@@H](NC(C)=O)C(C)C)ccc1S(=O)(=O)Nc1ccc(Cl)c(OC(F)(F)F)c1 [Example 1.576],≤ 200
20,CCOc1cc(NC(=O)[C@@H](O)c2ccccc2)ccc1S(=O)(=O)Nc1ccc(F)c(OC(F)(F)F)c1 [Example 1.220],≤ 200
21,CCOc1cc(NC(=O)C(CO)CC2CC2)ccc1S(=O)(=O)Nc1cccc(OC(F)(F)F)c1 (centres unmarked) [Example 1.014],≤ 200
22,CC(=O)Nc1cc(C)c(S(=O)(=O)Nc2cccc(C(F)(F)F)c2)c(C)c1 [Example 1.490],2000 to 20000
23,Cc1cc(NC(=O)c2ccnnc2)ccc1S(=O)(=O)Nc1cccc(C(F)(F)F)c1 [Example 1.093],750 to 2000
24,COc1cc(NC(=O)[C@@H]2CCCC[C@H]2O)ccc1S(=O)(=O)Nc1cccc(OC(F)(F)F)c1 [Example 1.049],750 to 2000
